From US5830504A, “Cooperative combinations of ligands contained within a matrix” (La Jolla Cancer Research Foundation, priority 1995, dated 1998)

What was measured:
Type in all cases: cell-based
[1] = system: human foreskin fibroblasts; assay: DNA synthesis ([3H]-thymidine incorporation) in PDGF-stimulated human foreskin fibroblasts on vitronectin or collagen; conditions: 40 ng/ml PDGF-BB, 20 μg/ml coating, FIG. 5 column 3 vs 4
Protocol: Human foreskin fibroblasts (Coriell) were plated at 1×10^5 cells/well on 24-well plates that had been coated for 12 hours either with 20 μg/ml of vitronectin of 20 μg/ml of type I collagen. Cells were incubated for 36 hours in Dulbecco's modified Eagle's medium containing 0.1% bovine serum albumin followed by addition of buffer or 40 ng/ml PDGF-BB (Boehringer Mannheim). After 15 hours, the cells were pulse-labeled with 1 μCi/ml [^3 H]-thymidine (specific activity 6.7 Ci/mmol, DuPont NEN) for 3 hours and thymidine incorporation into DNA was determined by liquid scintillation counting.
Cells were serum-starved and treated with buffer only (samples 1 and 2) or with PDGF (samples 3 and 4). Data points are the average of duplicate samples.

NRK cells = assay: DNA synthesis in IGF-1-stimulated NRK cells on vitronectin, collagen or laminin; conditions: data not shown
[2] = system: αv β3 integrin-IRS-1 association in HIRcB cells; assay: Association of IRS-1 with the vitronectin receptor after insulin stimulation (immunoprecipitation, immunoblot, densitometry); conditions: insulin-stimulated HIRcB cells; 100 nM insulin; compared with IRS-1 from total cell lysate
Protocol: HIRcB cells were grown to 80% confluency in Dulbeccos's modified Eagle's medium (DMEM) containing 10% fetal calf serum (FCS) and 500 nM methotrexate, incubated in DMEM+0.1% BSA for 36 hours, and either left quiescent, or stimulated with 100 nM insulin (Sigma) for 3 minutes. Cell monolayers were rinsed with PBS, frozen with liquid nitrogen and lysed in NP-40 lysis buffer (20 mM Tris-HCl (pH 8.0), 1% NP-40, 10% glycerol, 137 mM NaCl, 1 mM CaCl2, 1 mM MgCl2, 1 mM sodium orthovanadate, 50 mM sodium fluoride, 1 mM phenylmethylsulfonylfluoride, 0.1 U/ml aprotinin, 10 μg/ml pepstatin A). HIRcB cells were immunoprecipitated with anti-αv β3 237 according to Suzuki et al., PNAS USA 83:8614 (1986), as shown in lanes 1 and 3, 237 preimmune serum in lane 2, anti-αv β3 1343 in lane 4, anti-αIIb β3 in lane 5, anti-α5 β1 488 in lane 6 (made according to Argraves et al., J. Cell Biol. 105:1183 (1987)) and an unrelated rabbit antiserum (lane 7). Anti-αv β3 1343 was obtained from a person (Telios Pharmaceuticals, Inc.) and anti-αIIb β3 from Dr. Elisabetta Dejana (Mario Negri Institute, Milan, Italy). Three anti-α5 β1 antibodies and six unrelated polyclonal antibodies tested gave results similar to those shown in lanes 6 and 7. […] In lane 8, anti-αv β3 237 immunocomplexes from insulin-treated cells were dissociated and reprecipitated with the same antibody as follows. […]

[3] = system: FG-B human pancreatic carcinoma cells (αv β3 integrin positive); assay: DNA synthesis ([3H]-thymidine incorporation into DNA) in insulin-stimulated FG-B cells on vitronectin or type I collagen; conditions: 100 mM insulin, plates coated with 10 μg/ml vitronectin or type I collagen, FIG. 4 columns 9, 10
Protocol: (§1) FG-B (columns 1, 2, 5, 6, 9, and 10) and FG-C cells (columns 3, 4, 7, 8, 11, and 12) were plated at 1×10^5 cells/well on 24-well plates that had been coated either with vitronectin (dark column) or type I collagen (open column) . Plates were coated with 10 μg/ml of either vitronectin or type I collagen for 12 hours followed by blocking with 0.5% bovine serum albumin For 2 hours. Cells were incubated for 36 hours in DMEM containing 10% FCS (columns 1 to 4), or in DMEM containing 0.1% BSA followed by addition of buffer (columns 5 to 8) or 100 mM insulin (columns 9 to 12). FCS is used as a control because it provides maximal stimulation owing to the presence of high levels of growth factors and adhesion proteins.
(§2) After 15 hours, the cells were pulse-labeled with 1 μCi/ml [^3 H]-thymidine (specific activity 6.7 Ci/mmol, DuPont NEN) for 3 hours and thymidine incorporation into DNA was determined by trichloroacetic acid precipitation and liquid scintillation counting. Error bars indicate the standard error of triplicate determinations.

[4] = system: FG-C human pancreatic carcinoma cells (αv β3 integrin negative); assay: DNA synthesis ([3H]-thymidine incorporation into DNA) in insulin-stimulated FG-C cells on vitronectin or type I collagen; conditions: FG-C cells lacking αv β3; 100 mM insulin; FIG. 4 columns 3, 4, 7, 8, 11, 12
Protocol: as §1, §2

Rat-1 cells = assay: DNA synthesis ([3H]-thymidine incorporation) in EGF-stimulated Rat-1 cells on vitronectin or collagen; conditions: 40 ng/ml EGF, 20 μg/ml coating, FIG. 6
Protocol: Rat-1 cells were plated at 1×10^5 cells/well on 24-well plates that had been coated for 12 hours either with 20 μg/ml of vitronectin or 20 μg/ml of type I collagen. Cells were incubated for 36 hours in Dulbecco's modified Eagle's medium containing 0.1% bovine serum albumin followed by addition of buffer or 40 ng/ml EGF (Boehringer Mannheim). After 15 hours, the cells were pulse-labeled with 1 μCi/ml [^3 H]-thymidine (specific activity 6.7 Ci/mmol, DuPont NEN) for 3 hours and thymidine incorporation into DNA was determined by liquid scintillation counting.
After being serum-starved, the cells were treated with buffer only (samples 1 and 2) or with EGF (samples 3 and 4). Data points are the average of triplicate samples.

platelet derived growth factor [PDGF]
DNA synthesis in response to PDGF, on vitronectin relative to collagen [1]: about 2.3 fold

insulin-like growth factor [IGF-1]
DNA synthesis in response to IGF-1, on vitronectin relative to collagen or laminin (NRK cells): about 2.3 fold

insulin
Share of IRS-1 complexed with the vitronectin receptor [2]: Five to eight | DNA synthesis in response to insulin, on vitronectin relative to collagen [3]: about 2.5 fold | Difference in DNA synthesis response on vitronectin and collagen [4]: no difference

Epidermal growth factor (NSDSECPLSHDGYCLHDGVCMYIEALDKYACNCVVGYIGERCQYRDLKWWELR; Epidermal growth factor; UniProt P01133 971-1023, looked up) [EGF, EGF from Boehringer Mannheim]
Response (DNA synthesis) to EGF on vitronectin versus collagen (Rat-1 cells): same response
